Measurements published in US11591355B2 (Peloton Therapeutics, Inc., priority 2017, dated 2023).

molecular target: T1, CD73 on U138 human neuroglioma cells (Homo sapiens, UniProt P21589); assay: CD73 Cell-Based Assay; conditions: U138 cells, AMP substrate, 2 hours at 37° C., inorganic phosphate by malachite green
T1 construct: U138 cells were obtained from ATCC and cultured in DMEM with 10% FBS; host or cells: U138 human neuroglioma cells
T1 sequence (P21589 27-549): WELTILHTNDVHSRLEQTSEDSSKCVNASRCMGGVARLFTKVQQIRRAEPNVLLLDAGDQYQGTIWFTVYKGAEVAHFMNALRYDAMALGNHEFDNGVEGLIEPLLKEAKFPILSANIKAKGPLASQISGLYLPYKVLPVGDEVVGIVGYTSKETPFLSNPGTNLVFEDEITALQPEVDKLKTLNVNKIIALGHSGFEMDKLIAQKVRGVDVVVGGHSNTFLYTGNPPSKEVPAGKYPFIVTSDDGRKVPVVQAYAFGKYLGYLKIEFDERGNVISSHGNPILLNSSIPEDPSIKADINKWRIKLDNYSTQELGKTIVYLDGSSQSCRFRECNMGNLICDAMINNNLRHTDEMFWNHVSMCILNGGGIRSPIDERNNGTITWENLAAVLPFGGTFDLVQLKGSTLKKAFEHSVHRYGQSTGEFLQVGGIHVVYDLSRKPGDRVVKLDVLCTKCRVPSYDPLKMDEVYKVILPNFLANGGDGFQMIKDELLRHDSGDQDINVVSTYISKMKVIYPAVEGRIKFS
Protocol: U138 human neuroglioma cells were used in these experiments. U138 cells were obtained from ATCC and cultured in DMEM with 10% FBS. 2500 cells were seeded into 96-well plate with 100 μL of media the day before the experiment. Cells were washed twice with 200 μL of assay buffer (20 mM HEPES, pH 7.4; 137 mM NaCl; 5.4 mM KCl; 1.3 mM CaCl2); 4.2 mM NaHCO3; 1 mg/mL glucose) to remove residual inorganic phosphate. After washing, 100 μL of buffer was added to each well, then 100 μL of a mixture of AMP substrate (200 μM) and diluted compound was added to each well. The cells were incubated at 37° C. (with 5% CO2) for 2 hours. 50 μL of supernatant was transferred to a 96-well assay plate and the concentration of inorganic phosphate was determined using malachite green reagent (R&D System; Cat: DY996).

Compound	IC50 [nM]
O=P(O)(O)COC[C@H]1O[C@@H](n2cnc3c(NCc4ccccc4)ncnc32)[C@H](O)[C@@H]1O [Compound 1, [(2R,3S,4R,5R)-5-[6-(benzylamino)purin-9-yl]-3,4-dihydroxy-tetrahydrofuran-2-yl]methoxymethyl-phosphonic acid]	> 1000
O=P(O)(O)COC[C@H]1O[C@@H](n2ccc3c(NC4CCCC4)nc(C(F)F)nc32)[C@H](O)[C@@H]1O [Compound 239, [(2R,3S,4R,5R)-5-[4-(cyclopentylamino)-2-(difluoromethyl)pyrrolo-[2,3-d]pyrimidin-7-yl]-3,4-dihydroxy-tetra-hydrofuran-2-yl]-methoxymethylphos-phonic acid]	10 to 100

molecular target: T2, Human CD73 (Homo sapiens, UniProt P21589); assay: CD73 Enzyme Assay; assay type: biochemical; conditions: not given
T2 construct: purchased R&D Systems; host or cells: CHO cells
T2 sequence (P21589 27-549): T1 sequence (P21589 27-549)

Compound	IC50 [nM]
O=P(COC[C@H]1O[C@@H](n2ccc3c(NC4CCCC4)nc(Cl)nc32)[C@H](O)[C@@H]1O)(Oc1ccc(F)cc1)Oc1ccc(F)cc1 [Compound 227, (2R,3S,4R,5R)-2-[bis (4-fluorophenoxy)-phosphorylmethoxy-methyl]-5-[2-chloro-4-(cyclopentylamino)-pyrrolo[2,3-d]-pyrimidin-7-yl]tetra-hydrofuran-3,4-diol]	> 1000
O=P(O)(COC[C@H]1O[C@@H](n2ccc3c(NC4CCCC4)nc(Cl)nc32)[C@H](O)[C@@H]1O)Oc1ccc(F)cc1 [Compound 228, [(2R,3S,4R,5R)-5-[2-chloro-4-(cyclopentyl-amino)pyrrolo[2,3-d]-pyrimidin-7-yl]-3,4-dihydroxy-tetrahydro-furan-2-yl]methoxy-methyl-(4-fluoro-phenoxy)phosphinic acid]	> 1000
O=P(O)(COC[C@H]1O[C@@H](n2ccc3c(NC4CCCC4)nc(Cl)nc32)[C@H](O)[C@@H]1O)Oc1cccnc1 [Compound 233, [(2R,3S,4R,5R)-5-[2-chloro-4-(cyclopentyl-amino)pyrrolo[2,3-d]-pyrimidin-7-yl]-3,4-dihydroxy-tetrahydro-furan-2-yl]methoxy-methyl-(3-pyridyloxy)-phosphinic acid]	< 10

same assay, conditions: 0.25 nM hCD73, 25 μM AMP, kinetic read at 360 nm; read-out: CD73 Enzyme Assay IC50

Compound	IC50 [nM]
O=P(O)(O)COC[C@H]1O[C@@H](n2cnc3c(NCc4ccccc4)ncnc32)[C@H](O)[C@@H]1O [Compound 1, [(2R,3S,4R,5R)-5-[6-(benzylamino)purin-9-yl]-3,4-dihydroxy-tetrahydrofuran-2-yl]methoxymethyl-phosphonic acid]	> 1000
CC(C)(C)C(=O)COP(=O)(O)COC[C@H]1O[C@@H](n2ccc3c(NC4CCCC4)nc(Cl)nc32)[C@H](O)[C@@H]1O [Compound 223, [(2R,3S,4R,5R)-5-[2-chloro-4-(cyclopentyl-amino)pyrrolo[2,3-d]-pyrimidin-7-yl]-3,4-dihydroxy-tetrahydro-furan-2-yl]methoxy-methyl-(3,3-dimethyl-2-oxo-butoxy)phos-phinic acid]	> 1000
CC(C)OP(=O)(O)COC[C@H]1O[C@@H](n2ccc3c(NC4CCCC4)nc(Cl)nc32)[C@H](O)[C@@H]1O [Compound 224, [(2R,3S,4R,5R)-5-[2-chloro-4-(cyclopentyl-amino)pyrrolo[2,3-d]-pyrimidin-7-yl]-3,4-dihydroxy-tetrahydro-furan-2-yl]methoxy-methyl-isopropoxy-phosphinic acid]	> 1000
Cc1oc(=O)oc1COP(=O)(O)COC[C@H]1O[C@@H](n2ccc3c(NC4CCCC4)nc(Cl)nc32)[C@H](O)[C@@H]1O [Compound 225, [(2R,3S,4R,5R)-5-[2-chloro-4-(cyclopentyl-amino)pyrrolo[2,3-d]-pyrimidin-7-yl]-3,4-dihydroxy-tetrahydro-furan-2-yl]methoxy-methyl-[(5-methyl-2-oxo-1,3-dioxol-4-yl)-methoxy]phosphinic acid]	10 to 100
O=P(COC[C@H]1O[C@@H](n2ccc3c(NC4CCCC4)nc(Cl)nc32)[C@H](O)[C@@H]1O)(OCC(F)(F)F)OCC(F)(F)F [Compound 226, (2R,3S,4R,5R)-2-[bis(2,2,2-trifluoro-ethoxy)phosphoryl-methoxymethyl]-5-[2-chloro-4-(cyclopentyl-amino)pyrrolo[2,3-d]-pyrimidin-7-yl]tetra-hydrofuran-3,4-diol]	> 1000
CN(C)C(=O)COP(=O)(O)COC[C@H]1O[C@@H](n2ccc3c(NC4CCCC4)nc(Cl)nc32)[C@H](O)[C@@H]1O [Compound 234, [(2R,3S,4R,5R)-5-[2-chloro-4-(cyclopentyl-amino)pyrrolo[2,3-d]-pyrimidin-7-yl]-3,4-dihydroxy-tetrahydro-furan-2-yl]methoxy-methyl-[2-(dimethyl-amino)-2-oxo-ethoxy]-phosphinic acid]	100 to 1000
O=C(OCOP(=O)(O)COC[C@H]1O[C@@H](n2ccc3c(NC4CCCC4)nc(Cl)nc32)[C@H](O)[C@@H]1O)N1CCOCC1 [Compound 237, [(2R,3S,4R,5R)-5-[2-chloro-4-(cyclopentyl-amino)pyrrolo[2,3-d]-pyrimidin-7-yl]-3,4-dihydroxy-tetrahydro-furan-2-yl]methoxy-methyl-(morpholine-4-carbonyloxy-methoxy)phosphinic acid]	10 to 100
O=C(OCOP(=O)(COC[C@H]1O[C@@H](n2ccc3c(NC4CCCC4)nc(Cl)nc32)[C@H](O)[C@@H]1O)OCOC(=O)N1CCOCC1)N1CCOCC1 [Compound 238, [[(2R,3S,4R,5R)-5-[2-chloro-4-(cyclopentyl-amino)pyrrolo[2,3-d]-pyrimidin-7-yl]-3,4-dihydroxy-tetrahydro-furan-2-yl]methoxy-methyl-(morpholine-4-carbonyloxymeth-oxy)phosphoryl]oxy-methyl morpholine-4-carboxylate]	100 to 1000
O=P(O)(O)COC[C@H]1O[C@@H](n2ccc3c(N[C@@H]4CCNC4)nc(Cl)nc32)[C@H](O)[C@@H]1O [Compound 241, [(2R,3S,4R,5R)-5-[2-chloro-4-[[(3R)-pyrrolidin-3-yl]amino]-pyrrolo[2,3-d]pyrimidin-7-yl]-3,4-dihydroxy-tetrahydrofuran-2-yl]-methoxymethylphos-phonic acid]	100 to 1000
O=P(O)(O)COC[C@H]1O[C@@H](n2ccc3c(N[C@H]4CCNC4)nc(Cl)nc32)[C@H](O)[C@@H]1O [Compound 242, [(2R,3S,4R,5R)-5-[2-chloro-4-[[(3S)-pyrrolidin-3-yl]-amino]pyrrolo[2,3-d]-pyrimidin-7-yl]-3,4-dihydroxy-tetrahydro-furan-2-yl]methoxy-methylphosphonic acid]	> 1000
O=P(O)(O)COC[C@H]1O[C@@H](n2ccc3c(NC4CNC4)nc(Cl)nc32)[C@H](O)[C@@H]1O [Compound 245, [(2R,3S,4R,5R)-5-[4-(azetidin-3-ylamino)-2-chloro-pyrrolo[2,3-d]pyrimidin-7-yl]-3,4-dihydroxy-tetrahydro-furan-2-yl]methoxy-methylphosphonic acid]	100 to 1000
CCCCCCCCCCCCCCCCOCCCOP(=O)(O)COC[C@H]1O[C@@H](n2ccc3c(NC4CCCC4)nc(Cl)nc32)[C@H](O)[C@@H]1O [Compound 246, [(2R,3S,4R,5R)-5-[2-chloro-4-(cyclopentyl-amino)pyrrolo[2,3-d]-pyrimidin-7-yl]-3,4-dihydroxy-tetrahydro-furan-2-yl]methoxy-methyl-(3-hexadecoxy-propoxy)phosphinic acid]	> 1000
CN(C)CCOc1nc(NC2CCCC2)c2ccn([C@@H]3O[C@H](COCP(=O)(O)O)[C@@H](O)[C@H]3O)c2n1 [Compound 259, [(2R,3S,4R,5R)-5-[4-(cyclopentylamino)-2-[2-(dimethylamino)-ethoxy]pyrrolo[2,3-d]-pyrimidin-7-yl]-3,4-dihydroxy-tetrahydro-furan-2-yl]methoxy-methylphosphonic acid]	100 to 1000
O=P(O)(O)COC[C@H]1O[C@@H](n2ccc3c(NC4CCCC4)nc(OCc4ccccn4)nc32)[C@H](O)[C@@H]1O [Compound 264, [(2R,3S,4R,5R)-5-[4-(cyclopentylamino)-2-(2-pyridylmethoxy)-pyrrolo[2,3-d]pyrimidin-7-yl]-3,4-dihydroxy-tetrahydrofuran-2-yl]-methoxymethylphos-phonic acid]	100 to 1000
O=P(O)(O)CP(=O)(O)OC[C@H]1O[C@@H](n2cnc3c(NC4CCCC4)nc(Cl)nc32)[C@H](O)[C@@H]1O [Compound 282, [[(2R,3S,4R,5R)-5-[2-chloro-6-(cyclopentyl-amino)purin-9-yl]-3,4-dihydroxy-tetrahydro-furan-2-yl]methoxy-hydroxy-phosphoryl]-methylphosphonic acid]	< 10
O=P(O)(O)COC[C@H]1O[C@@H](c2scc3c(N4CCCC4)nc(O)nc23)[C@H](O)[C@@H]1O [Compound 302]	> 1000

same assay, conditions: read-out: IC50

Compound	IC50 [nM]
Nc1ncnc2c1ncn2[C@@H]1O[C@H](COP(=O)(O)CP(=O)(O)O)[C@@H](O)[C@H]1O [adenosine 5′-(α,β-methylene)diphosphate, reference compound]	50
